Reference: article PMC6143625, “A high throughput screen for next-generation leads targeting malaria parasite transmission” (Nature Communications, 2018)

Tests used:
[1] = system: P. falciparum stage V male gametocytes (male gamete formation); experiment: P. falciparum dual gamete formation assay (Pf DGFA), male readout (exflagellation), 48 h carry-over format; type: cell-based, Plasmodium falciparum NF54; conditions: primary screen, 2 uM, 48 h incubation, single replicate
[2] = system: P. falciparum stage V female gametocytes (female gamete formation); experiment: P. falciparum dual gamete formation assay (Pf DGFA), female readout (Pfs25 expression), 48 h carry-over format; type: cell-based, Plasmodium falciparum NF54; conditions: primary screen, 2 uM, 48 h incubation, single replicate

| SMILES | %Inhibition Male @2uM [1] | %Inhibition Female @2uM [2] |
| --- | --- | --- |
| CC(C)[C@H](NS(C)(=O)=O)C(=O)NCc1cc(-c2ccco2)n[nH]1 [DDD01235905] | 31.18% | <30% |
| CC(C)[C@H](NS(C)(=O)=O)C(=O)NCc1cc(-c2ccccc2)n[nH]1 [DDD01235932] | 32.71% | <30% |
| CC(C)(C)Nc1nc(-c2cccnc2)c(-c2ccnc(NCCO)n2)s1 [DDD01235967] | 38.85% | <30% |
| CCOCC(=O)N1CCC(c2nccn2Cc2cscn2)CC1 [DDD01243474] | 109.47% | <30% |
| O=C(O)CCc1cc2n(n1)CCCN(C(=O)c1ccc(F)cc1F)C2 [DDD01243729] | 76.28% | <30% |
| NCC1CCCN(c2nc(-c3ccccc3)nc3c2CCNCC3)C1 (centres unmarked) [DDD01244614] | 71.27% | 30.18% |
| Cn1nnnc1SCCNC(=O)C1CCN(C(=O)C2CC2)CC1 [DDD01244691] | 73.04% | <30% |
| CCC(C(=O)N(C)C)N1CCC(c2nccn2Cc2cscn2)CC1 (centres unmarked) [DDD01244731] | 126.32% | <30% |
| CN(C)c1ccc(C(=O)N2CCCN(C3CCCCC3)CC2)cn1 [DDD01244855] | <30% | 30.12% |
| COC(=O)c1ccc(C(=O)N2CCCC(Nc3ccc(F)cc3)C2)cc1 (centres unmarked) [DDD01244904] | 109.47% | <30% |
| CN(Cc1cnn(C)c1)c1nccc(-c2cc(C(=O)O)ccn2)n1 [DDD01245058] | <30% | 33.22% |
| Cc1nc[nH]c1CN1CCn2nc(CN3Cc4ccccc4C3)cc2C1 [DDD01245298] | 30.45% | <30% |
| COc1cccc2c1OCC(C(=O)N1CCN(CCS(C)(=O)=O)CC1)C2 (centres unmarked) [DDD01245746] | 56.62% | <30% |
| CCNC(=O)[C@@H]1C[C@H](NC(=O)c2cncnc2C)CN1Cc1ccsc1 [DDD01245940] | <30% | 96.27% |
| Cc1cccc(=O)n1CCCNc1nc(N(C)C)nc2c1CCNC2 [DDD01245962] | 35.31% | <30% |
| CN(C)Cc1nnc(C2CCN(c3ncccc3Cl)CC2)n1C1CC1 [DDD01246077] | 30.72% | <30% |
| COCCN(C)CCN1CC2(CCN(C3CCOC3)CC2)OC1=O (centres unmarked) [DDD01246090] | 126.32% | <30% |
| COc1cccc2c1OCC(C(=O)N1Cc3ccccc3C1)C2 (centres unmarked) [DDD01246187] | 112.07% | <30% |
| O=C(c1ccccn1)N1C[C@H]2CC[C@@H](C1)N(C(=O)CCN1CCCC1)C2 [DDD01246765] | 99.89% | <30% |
| CCc1ccc(CN(C)C(=O)C2CC(=O)N(c3cccc(O)c3)C2)nc1 (centres unmarked) [DDD01246796] | 126.32% | <30% |
| C=C1C(C)(C)[C@@H]2CC[C@]1(C(=O)N1CCC(n3cc(CCO)nn3)CC1)C2 [DDD01246808] | <30% | 30.26% |
| COCCN(C)CCN1CC2(CCN(C3CCSC3)CC2)OC1=O (centres unmarked) [DDD01246844] | 176.84% | <30% |
| Cc1cccc(C(=O)N2CCCC(c3nccn3Cc3cscn3)C2)n1 (centres unmarked) [DDD01247041] | 160.00% | <30% |
| Cc1ccccc1OCC(=O)N1CCOC2(CNCCOC2)C1 (centres unmarked) [DDD01247077] | 174.44% | <30% |
| COc1cccc(Cn2c(C)c(C)oc2=O)c1OC [DDD01247327] | <30% | 30.45% |
| CN(C)CC(=O)NC1CC(C)(C)Cc2nc(C(C)(C)C)ncc21 (centres unmarked) [DDD01247509] | <30% | 43.65% |
| c1cc(CN2CCC(c3ccncc3)CC2)cc(Cn2cccn2)c1 [DDD01247553] | 75.89% | <30% |
| CCNC(=O)[C@@H]1C[C@H](N)CN1C(=O)C1(c2ccc(OC)cc2)CCCC1 [DDD01247775] | <30% | 31.68% |

| SMILES | %Inhibition Male @2uM [1] | %Inhibition Female @2uM [2] |
| --- | --- | --- |
| Cc1ccc(CN(Cc2ccncc2)C2CCN(C)CC2)s1 [DDD01247850] | <30% | 35.49% |
| CSc1nccc(N2CCC(=O)N(CC3CC3)C(C(C)C)C2)n1 (centres unmarked) [DDD01248006] | 91.33% | <30% |
| CCn1c(C2CCCN(C(=O)c3ccc[nH]3)C2)nn(CCN(C)C)c1=O (centres unmarked) [DDD01248239] | 83.64% | <30% |
| CCc1ccc(CN(C)Cc2cnc(S(=O)(=O)CC)n2CCOC)cc1 [DDD01248618] | 143.16% | <30% |
| O=C(O)C1(Oc2ccccc2F)CCN(C/C=C/c2ccco2)CC1 [DDD01248641] | <30% | 35.65% |
| CN(C)C(=O)NCc1cc2n(n1)CCCN(CC1CCCNC1)C2 (centres unmarked) [DDD01248722] | 166.37% | <30% |
| Cc1cccc2[nH]c(C3CCN(C(=O)c4ccc[nH]4)CC3)nc12 [DDD01248889] | 179.77% | <30% |
| Cc1nc2cc(OCc3nc(C(=O)NC(C)(CO)CO)co3)ccc2s1 [DDD01248928] | 109.47% | <30% |
| Cc1cccc(N2CCC(N3CCCC4(CNC(=O)O4)C3)CC2)c1C (centres unmarked) [DDD01248972] | <30% | 36.41% |
| CCCn1cc(C(=O)NC2CCC(n3cnnc3)CC2)c(C)n1 (centres unmarked) [DDD01249122] | 90.61% | <30% |
| COc1cccc2c1OCC(C(=O)N1CCSCC1)C2 (centres unmarked) [DDD01249304] | 51.06% | <30% |
| O=C(c1ccccc1)N1CCCC(Nc2ccc(F)cc2)C1 (centres unmarked) [DDD01249390] | 180.87% | <30% |
| Cc1noc(CN(C)C(=O)c2[nH]nc(N)c2-c2ccccc2)n1 [DDD01249532] | <30% | 61.65% |
| Cc1nn(C)c2nc(N(C)CC3CCN(CC(C)C)C3)sc12 (centres unmarked) [DDD01249587] | <30% | 47.43% |
| COc1cccc(OC2CN(C(=O)c3sccc3C)C2)c1 [DDD01250000] | <30% | 64.75% |
| CN1CCC(N(C)C[C@H]2CC[C@@H](Cc3ccc4occc4c3)O2)CC1 [DDD01250070] | <30% | 33.03% |
| CCc1nn(C)c(Cl)c1CN1CCCC2(CC1)CN(C)C(=O)O2 (centres unmarked) [DDD01250081] | <30% | 32.84% |
| CN(C)Cc1nnc(C2CCN(c3ncccn3)CC2)n1C1CC1 [DDD01250187] | 31.65% | <30% |
| CCc1ccccc1C(=O)N1C[C@@H](CN2CCOCC2)[C@@H](CO)C1 [DDD01250732] | 143.16% | <30% |
| O=C(c1ccccn1)N1C[C@H]2CC[C@@H](C1)N(C(=O)CCC1CCCC1)C2 [DDD01250927] | 61.83% | <30% |
| O=C(c1ccccc1)N1C[C@H]2CC[C@@H](C1)N(Cc1cc(F)ccc1Cl)C2 [DDD01251068] | 176.84% | <30% |
| Cc1oc(-c2ccoc2)nc1CN1CCC[C@H]1CO [DDD01251548] | 131.44% | <30% |
| CN(C)c1nccnc1N1CC[C@@]2(O)CCNC[C@H]2C1 [DDD01251755] | <30% | 48.40% |
| COc1ccc(CN2CCC3(CCCNC3)C2)cc1Cn1cccn1 (centres unmarked) [DDD01251771] | 126.32% | <30% |
| CN(C)C(C(=O)N1CC(Oc2ccccc2F)C1)c1ccc(F)cc1 (centres unmarked) [DDD01251854] | <30% | 43.98% |
| Cc1ocnc1C(=O)N1CCC(c2nccn2Cc2ccncc2)CC1 [DDD01252089] | 78.03% | <30% |
| CN(C)c1ccccc1C(=O)N1CCOC2(CNCCOC2)C1 (centres unmarked) [DDD01252114] | 137.91% | <30% |
